Measurements from article PMC3006138, “Fexinidazole – A New Oral Nitroimidazole Drug Candidate Entering Clinical Development for the Treatment of Sleeping Sickness” (PLoS Neglected Tropical Diseases, 2010).
Values after ≈ are worked out from the molar mass of the structure shown. Read-outs that look alike come from different tables or passages of the source.

Legend:
[1] = Hepatocyte intrinsic clearance and metabolite profile; assay type: in vitro ADME, mouse; details: male, CD-1, mouse, cryopreserved hepatocytes, 1 µM
Protocol: (§1) Fexinidazole was incubated with cryopreserved hepatocytes from male CD-1 mice, male Sprague Dawley rats, male beagle dogs, male cynomolgus monkeys, and from pooled white or African-American human donor samples (purchased commercially), at concentrations of 1 µM and 10 µM. […] The incubated samples were analyzed by LC-MS after extraction into acetonitrile.
(§2) A quality control analysis of fexinidazole was performed via 1H-NMR in DMSO and LC- […]
(§3) provided by the Swiss Tropical Institute (Basel, Switzerland).
(§4) Reagents and solvents were of analytical grade and obtained from Sigma-Aldrich (St. Louis, […]
(§5) Cryopreserved hepatocytes from the male CD1 mouse, lot CSI; male Sprague Dawley rat, lot LPL; male beagle dog, lot BWX; male cynomolgus monkey, lot EHH; and pooled human samples, lot MJI, were purchased from In Vitro Technologies Inc (Baltimore, Maryland, […]
(§6) 5.4. In vitro Incubations
(§7) On the day of the experiment a 10 mM stock solution of fexinidazole in DMSO was prepared and, within 3 hours, aliquots of this freshly prepared solution, after suitable dilution, were added to the incubation matrix, to reach fexinidazole final concentrations of 1 and 10 µM. The final percentage of DMSO was 0.01% in the incubation samples for the […]
(§8) On the day of experiment, the cryopreserved hepatocytes were thawed following the detailed instructions provided by the supplier.
(§9) The number of viable cells was determined using a Trypan Blue exclusion method.
(§10) 5.4.1. Intrinsic Clearance Study […]
(§11) µM with mouse, rat, dog, monkey and human hepatocytes (300000 cells/mL for the mouse and 1 million cells/mL for the other species) in a final incubation volume of 0.75 mL […]
(§12) Incubations were performed in duplicate in a 48-well plate under shaking. Sampling was performed using an automatic liquid handling system (Multiprobe II EX, Packard). At 0, 1, 5, 10, 15, 20, 30, 60 and 120 minutes, 50 µL aliquots of the incubates were taken, then 80 µL of ice-cold acetonitrile and 20 µL of 1 µM warfarin in acetonitrile (internal standard) were added, and samples centrifuged at 2000 rpm for 20 min. The supernatant was analyzed by LC-MS/MS. […]
(§13) the medium alone at t = 0 and 120 minutes.
(§14) For the determination of phase I and phase II activity of hepatocytes, 7-ethoxycoumarin (7-EC) 1 µM, and 7-hydroxycoumarin (7-HC) 30 µM were used as positive controls and incubated under the same conditions as fexinidazole. Aliquots of incubates were taken at 0, 10, 20, 30, 60 and 120 minutes and processed as fexinidazole samples.
(§15) 5.4.2. Metabolite Profile Study
(§16) For metabolite profiling, fexinidazole was incubated at a concentration of 10 µM with mouse, rat, dog, monkey and human hepatocytes (300000 cells/mL for the mouse and 1 million cells/mL for the other species) in a final incubation volume of 2 mL Leibovitz L-15 […]
(§17) Aliquots of the incubation samples were taken at t = 0, 30 and 120 minutes; the metabolism was stopped by the addition of an equal volume of cold acetonitrile and the samples centrifuged at 1500 rpm for 20 min. The supernatant was stored at -20°C until analysis. Control incubations were performed with the compound in the medium alone […]
(§18) 5.5. Analysis of Samples for Intrinsic Clearance Determination
(§19) The analysis of the samples for intrinsic clearance determination was performed by an LC-MS/MS method, using the following conditions:
(§20) HPLC Equipment and Conditions
(§21) HPLC system Agilent 1100 binary pump (Agilent, Palo Alto, USA)
(§22) Autosampler CTC Pal (Alfatech, San Jose, USA)
(§23) Analytical column Guard Column SB-C8 4.6 x 12.5 mm, 5 µm (Zorbax)
(§24) Column temperature ambient
(§25) Mobile phase A 10 mM ammonium formate pH 4.0: acetonitrile (95:5, v:v)
(§26) Mobile phase B 10 mM ammonium formate pH 4.0: acetonitrile (5:95, v:v) […]
(§27) Gradient conditions Step Total time (min) flow (µL/min) %A % B […]
(§28) MS Equipment and Conditions
(§29) Mass spectrometer API 4000 Triple Quadrupole (MDS-Sciex, Toronto, […]
(§30) Source Turbo Ion Spray (TIS)
(§31) Ion mode Positive for fexinidazole and 7-EC.
(§32) Negative for 7-HC, 7-HC sulphate and 7-HC glucuronide.

[2] = as above; assay type: in vitro ADME, cynomolgus monkey; details: male, cynomolgus monkey, cryopreserved hepatocytes, 1 µM
Protocol: as §1, §2, §3, §4, §5, §6, §7, §8, §9, §10, §11, §12, §13, §14, §15, §16, §17, §18, §19, §20, §21, §22, §23, §24, §25, §26, §27, §28, §29, §30, §31, §32

African trypanosomes = assay: In vitro activity against African trypanosomes (summary); assay type: cell-based; details: Trypanosoma brucei, laboratory strains and recent clinical isolates
Protocol: Parasites were cultured with or without the test article at a concentration of 3×10^4/mL in Minimal Essential Medium, according to Baltz et al., with the following modifications: 0.2 mM 2-mercaptoethanol, 1 mM Na-pyruvate, 0.5 mM hypoxanthine and 15% heat inactivated horse serum at 37°C in 5% CO2 in 96-well microtitre plates for 72 h. 10 µL of Alamar Blue was added for the final 3 h to determine viability. The assay was assessed by reading the fluorescence in each well at an excitation wavelength of 536 nm and at an emission wavelength of 588 nm. The IC50 values were calculated from the sigmoidal inhibition curves. For cytotoxicity, 4×10^4/mL L-6 rat skeletal myoblast cells were used, and incubations and assessments carried out as above.

[3] = Respiratory safety (plethysmography); details: single oral dose
[4] = system: bone marrow polychromatic erythrocytes; assay: In vivo bone marrow micronucleus test; parameters: species or system mouse
Protocol: Groups of six young adult male Crl:CD-1 (ICR) mice were treated with fexinidazole at two oral doses of 0, 500, 1000, or 2000 mg/kg given 24 h apart, and bone marrows were harvested 24 h after the second dose. Slides of bone marrow cells were prepared, Giemsa stained, and 2000 polychromatic erythrocytes per animal were scored for micronuclei.

[5] = Hepatocyte intrinsic clearance and metabolite profile; assay type: in vitro ADME, dog; details: male, beagle, dog, cryopreserved hepatocytes, 1 µM
Protocol: as §1, §2, §3, §4, §5, §6, §7, §8, §9, §10, §11, §12, §13, §14, §15, §16, §17, §18, §19, §20, §21, §22, §23, §24, §25, §26, §27, §28, §29, §30, §31, §32

Compound: CSc1ccc(OCc2ncc([N+](=O)[O-])n2C)cc1 [Fexinidazole, 1-methyl-2-((p-(methylthio)phenoxy)methyl)-5-nitroimidazole]
- half-life at 1 µM [1]: 1.4 min
- CLint scaled at 1 µM ([1]; read-out: CLint in vitro): > 3000 mL/min/kg
- hepatocyte CLint at 1 µM ([1]; read-out: CLint in vitro): 1630 µL/min/1e6 cells
- CLint scaled at 1 µM ([2]; read-out: CLint in vitro): 6500 mL/min/kg
- half-life at 1 µM ([2]; cynomolgus): 0.6 min
- hepatocyte CLint at 1 µM ([2]; cynomolgus, read-out: CLint in vitro): 1190 µL/min/1e6 cells
- IC50 (African trypanosomes): 0.1 to 0.8 µg/mL (≈ 0.358 to 2.86 µM)
- NOEL on respiratory parameters [3]: 1000 mg/kg
- Micronucleated PCE/1000 ([4]; 500 mg/kg po ×2): 1.4
- PCE/NCE ([4]; 500 mg/kg po ×2): 0.82
- Micronucleated PCE/1000 ([4]; 1000 mg/kg po ×2): 1.1
- PCE/NCE ([4]; 1000 mg/kg po ×2): 0.75
- Micronucleated PCE/1000 ([4]; 2000 mg/kg po ×2): 1.8
- PCE/NCE ([4]; 2000 mg/kg po ×2): 0.89
- in vivo micronucleus test result ([4]; oral doses up to 2 g/kg): confirmed the lack of clastogenicity
- half-life at 1 µM [5]: 1.1 min
- CLint scaled at 1 µM ([5]; read-out: CLint in vitro): > 3000 mL/min/kg
- hepatocyte CLint at 1 µM ([5]; read-out: CLint in vitro): 656 µL/min/1e6 cells
